Data from US8802597B2, “Herbicidal pyrimidines” (E I du Pont de Nemours and Company, priority 2003, dated 2014).

Tests used:
Assay type in all cases: in vivo
[1] = system: crabgrass (Digitaria sanguinalis); assay: Test B pre/postemergence
Text: (§1) Seeds selected from barnyardgrass (Echinochloa crus-galli), Surinam grass (Brachiaria decumbens), cocklebur (Xanthium strumarium), corn (Zea mays), crabgrass (Digitaria sanguinalis), giant foxtail (Setaria faberii), lambsquarters (Chenopodium album), morningglory (Ipomoea coccinea), pigweed (Amaranthus retroflexus), velvetleaf (Abutilon theophrasti), and wheat (Triticum aestivum) were planted and treated preemergence with test chemicals formulated in a non-phytotoxic solvent mixture which included a surfactant.
(§2) At the same time, plants selected from these crop and weed species and also blackgrass (Alopecurus myosuroides) and wild oat (Avena fatua) were treated with postemergence applications of test chemicals formulated in the same manner. Plants ranged in height from 2 to 18 cm (1- to 4-leaf stage) for postemergence treatments. Plant species in the flooded paddy test consisted of rice (Oryza sativa), umbrella sedge (Cyperus difformis), duck salad (Heteranthera limosa) and barnyardgrass (Echinochloa crus-galli) grown to the 2-leaf stage for testing. Treated plants and controls were maintained in a greenhouse for 13 to 15 days, after which time all species were compared to controls and visually evaluated. Plant response ratings, summarized in Table B, are based on a scale of 0 to 100 where 0 is no effect and 100 is complete control. A dash (-) response means no test result.

[2] = system: velvetleaf (Abutilon theophrasti); assay: Test B pre/postemergence
Text: as §1, §2

[3] = system: barnyardgrass (Echinochloa crus-galli); assay: Test B pre/postemergence
Text: as §1, §2

[4] = system: morningglory (Ipomoea coccinea); assay: Test B pre/postemergence
Text: as §1, §2

[5] = system: lambsquarters (Chenopodium album); assay: Test B pre/postemergence; settings: Postemergence; for Lambsquarters plant response rating: 125 g ai/ha, scale 0 to 100 (0 no effect, 100 complete control); for Plant response rating, Lambsquarters: 500 g ai/ha, scale 0 to 100
Text: as §1, §2

[6] = system: pigweed (Amaranthus retroflexus); assay: Test B pre/postemergence
Text: as §1, §2

[7] = system: Surinam grass (Brachiaria decumbens); assay: Test B pre/postemergence
Text: as §1, §2

[8] = system: giant foxtail (Setaria faberii); assay: Test B pre/postemergence
Text: as §1, §2

[9] = system: wheat (Triticum aestivum); assay: Test B pre/postemergence
Text: as §1, §2

[10] = system: corn (Zea mays); assay: Test B pre/postemergence
Text: as §1, §2

[11] = system: cocklebur (Xanthium strumarium); assay: Test B pre/postemergence
Text: as §1, §2

[12] = system: wild oat (Avena fatua); assay: Test B postemergence; settings: for Oat, Wild plant response rating: 125 g ai/ha, scale 0 to 100 (0 no effect, 100 complete control); for Plant response rating, Oat, Wild: 500 g ai/ha, scale 0 to 100
Text: as §1, §2

[13] = system: blackgrass (Alopecurus myosuroides); assay: Test B postemergence; settings: for Blackgrass plant response rating: 125 g ai/ha, scale 0 to 100 (0 no effect, 100 complete control); for Plant response rating, Blackgrass: 500 g ai/ha, scale 0 to 100
Text: as §1, §2

[14] = Postemergence, 125 g ai/ha, scale 0 to 100 (0 no effect, 100 complete control)
[15] = Postemergence, 500 g ai/ha, scale 0 to 100
[16] = Preemergence, 125 g ai/ha, scale 0 to 100 (0 no effect, 100 complete control)
[17] = Preemergence, 500 g ai/ha, scale 0 to 100 (0 no effect, 100 complete control)

Compound: CCOC(=O)c1nc(C2CC2)nc(NOC)c1Br [Compound 52]
- Crabgrass plant response rating [1, 14]: 0
- Plant response rating, Crabgrass [1, 15]: 60
- Plant response rating, Crabgrass [1, 16]: 0
- Plant response rating, Crabgrass [1, 17]: 0
- Velvetleaf plant response rating [2, 14]: 40
- Plant response rating, Velvetleaf [2, 15]: 50
- Plant response rating, Velvetleaf [2, 16]: 0
- Plant response rating, Velvetleaf [2, 17]: 30
- Barnyardgrass plant response rating [3, 14]: 30
- Plant response rating, Barnyardgrass [3, 15]: 80
- Plant response rating, Barnyardgrass [3, 16]: 0
- Plant response rating, Barnyardgrass [3, 17]: 30
- Morningglory plant response rating [4, 14]: 90
- Plant response rating, Morningglory [4, 15]: 90
- Plant response rating, Morningglory [4, 16]: 10
- Plant response rating, Morningglory [4, 17]: 100
- Lambsquarters plant response rating [5]: 80
- Plant response rating, Lambsquarters [5]: 90
- Pigweed plant response rating [6, 14]: 60
- Plant response rating, Pigweed [6, 15]: 90
- Plant response rating, Pigweed [6, 17]: 50
- Surinam Grass plant response rating [7, 14]: 0
- Plant response rating, Surinam Grass [7, 15]: 30
- Plant response rating, Surinam Grass [7, 16]: 0
- Plant response rating, Surinam Grass [7, 17]: 0
- Foxtail, Giant plant response rating [8, 14]: 40
- Plant response rating, Foxtail, Giant [8, 15]: 60
- Plant response rating, Foxtail, Giant [8, 16]: 0
- Plant response rating, Foxtail, Giant [8, 17]: 0
- Wheat plant response rating [9, 14]: 0
- Plant response rating, Wheat [9, 15]: 20
- Plant response rating, Wheat [9, 16]: 0
- Plant response rating, Wheat [9, 17]: 0
- Corn plant response rating [10, 14]: 0
- Plant response rating, Corn [10, 15]: 60
- Plant response rating, Corn [10, 17]: 0
- Cocklebur plant response rating [11, 14]: 40
- Plant response rating, Cocklebur [11, 15]: 60
- Plant response rating, Cocklebur [11, 16]: 10
- Plant response rating, Cocklebur [11, 17]: 60
- Oat, Wild plant response rating [12]: 0
- Plant response rating, Oat, Wild [12]: 20
- Blackgrass plant response rating [13]: 0
- Plant response rating, Blackgrass [13]: 50

Compound: CCOC(=O)c1nc(C2CC2)nc(NOCc2ccccc2)c1Br [Compound 54]
- Crabgrass plant response rating [1, 14]: 20
- Plant response rating, Crabgrass [1, 15]: 30
- Plant response rating, Crabgrass [1, 16]: 0
- Plant response rating, Crabgrass [1, 17]: 0
- Velvetleaf plant response rating [2, 14]: 50
- Plant response rating, Velvetleaf [2, 15]: 60
- Plant response rating, Velvetleaf [2, 16]: 10
- Plant response rating, Velvetleaf [2, 17]: 80
- Barnyardgrass plant response rating [3, 14]: 0
- Plant response rating, Barnyardgrass [3, 15]: 70
- Plant response rating, Barnyardgrass [3, 16]: 0
- Plant response rating, Barnyardgrass [3, 17]: 40
- Morningglory plant response rating [4, 14]: 80
- Plant response rating, Morningglory [4, 15]: 90
- Plant response rating, Morningglory [4, 16]: 0
- Lambsquarters plant response rating [5]: 80
- Plant response rating, Lambsquarters [5]: 90
- Pigweed plant response rating [6, 14]: 80
- Plant response rating, Pigweed [6, 15]: 90
- Plant response rating, Pigweed [6, 16]: 100
- Plant response rating, Pigweed [6, 17]: 100
- Surinam Grass plant response rating [7, 14]: 0
- Plant response rating, Surinam Grass [7, 15]: 0
- Plant response rating, Surinam Grass [7, 16]: 0
- Plant response rating, Surinam Grass [7, 17]: 0
- Foxtail, Giant plant response rating [8, 14]: 20
- Plant response rating, Foxtail, Giant [8, 15]: 30
- Plant response rating, Foxtail, Giant [8, 16]: 0
- Plant response rating, Foxtail, Giant [8, 17]: 0
- Wheat plant response rating [9, 14]: 0
- Plant response rating, Wheat [9, 15]: 20
- Plant response rating, Wheat [9, 16]: 0
- Plant response rating, Wheat [9, 17]: 0
- Corn plant response rating [10, 14]: 0
- Plant response rating, Corn [10, 15]: 20
- Plant response rating, Corn [10, 16]: 0
- Plant response rating, Corn [10, 17]: 0
- Cocklebur plant response rating [11, 14]: 20
- Plant response rating, Cocklebur [11, 15]: 80
- Plant response rating, Cocklebur [11, 16]: 50
- Plant response rating, Cocklebur [11, 17]: 90
- Oat, Wild plant response rating [12]: 0
- Plant response rating, Oat, Wild [12]: 40
- Blackgrass plant response rating [13]: 40
- Plant response rating, Blackgrass [13]: 40

Compound: CCOC(=O)c1nc(C2CC2)nc(NOC(C)(C)C)c1Br [Compound 55]
- Crabgrass plant response rating [1, 14]: 0
- Plant response rating, Crabgrass [1, 15]: 30
- Plant response rating, Crabgrass [1, 16]: 50
- Plant response rating, Crabgrass [1, 17]: 60
- Velvetleaf plant response rating [2, 14]: 10
- Plant response rating, Velvetleaf [2, 15]: 30
- Plant response rating, Velvetleaf [2, 16]: 50
- Plant response rating, Velvetleaf [2, 17]: 90
- Barnyardgrass plant response rating [3, 14]: 0
- Plant response rating, Barnyardgrass [3, 15]: 50
- Plant response rating, Barnyardgrass [3, 16]: 0
- Plant response rating, Barnyardgrass [3, 17]: 60
- Morningglory plant response rating [4, 14]: 80
- Plant response rating, Morningglory [4, 15]: 90
- Plant response rating, Morningglory [4, 16]: 80
- Plant response rating, Morningglory [4, 17]: 100
- Lambsquarters plant response rating [5]: 70
- Plant response rating, Lambsquarters [5]: 90
- Pigweed plant response rating [6, 14]: 70
- Plant response rating, Pigweed [6, 15]: 80
- Plant response rating, Pigweed [6, 16]: 80
- Plant response rating, Pigweed [6, 17]: 100
- Surinam Grass plant response rating [7, 14]: 0
- Plant response rating, Surinam Grass [7, 15]: 0
- Plant response rating, Surinam Grass [7, 16]: 0
- Plant response rating, Surinam Grass [7, 17]: 50
- Foxtail, Giant plant response rating [8, 14]: 20
- Plant response rating, Foxtail, Giant [8, 15]: 20
- Plant response rating, Foxtail, Giant [8, 16]: 0
- Plant response rating, Foxtail, Giant [8, 17]: 0
- Wheat plant response rating [9, 14]: 0
- Plant response rating, Wheat [9, 15]: 0
- Plant response rating, Wheat [9, 16]: 0
- Plant response rating, Wheat [9, 17]: 70
- Corn plant response rating [10, 14]: 0
- Plant response rating, Corn [10, 15]: 20
- Plant response rating, Corn [10, 16]: 0
- Plant response rating, Corn [10, 17]: 0
- Cocklebur plant response rating [11, 14]: 20
- Plant response rating, Cocklebur [11, 15]: 80
- Plant response rating, Cocklebur [11, 16]: 70
- Plant response rating, Cocklebur [11, 17]: 90
- Oat, Wild plant response rating [12]: 0
- Plant response rating, Oat, Wild [12]: 20
- Blackgrass plant response rating [13]: 30
- Plant response rating, Blackgrass [13]: 40

Compound: CCOC(=O)c1nc(C2CC2)nc(N2CCCC2)c1Br [Compound 56]
- Crabgrass plant response rating [1, 14]: 0
- Plant response rating, Crabgrass [1, 15]: 0
- Plant response rating, Crabgrass [1, 16]: 0
- Plant response rating, Crabgrass [1, 17]: 0
- Velvetleaf plant response rating [2, 14]: 0
- Plant response rating, Velvetleaf [2, 15]: 0
- Plant response rating, Velvetleaf [2, 16]: 0
- Plant response rating, Velvetleaf [2, 17]: 30
- Barnyardgrass plant response rating [3, 14]: 0
- Plant response rating, Barnyardgrass [3, 15]: 30
- Plant response rating, Barnyardgrass [3, 16]: 0
- Plant response rating, Barnyardgrass [3, 17]: 0
- Morningglory plant response rating [4, 14]: 0
- Plant response rating, Morningglory [4, 15]: 50
- Plant response rating, Morningglory [4, 17]: 20
- Lambsquarters plant response rating [5]: 20
- Plant response rating, Lambsquarters [5]: 30
- Pigweed plant response rating [6, 14]: 50
- Plant response rating, Pigweed [6, 15]: 70
- Plant response rating, Pigweed [6, 17]: 80
- Surinam Grass plant response rating [7, 14]: 0
- Plant response rating, Surinam Grass [7, 15]: 0
- Plant response rating, Surinam Grass [7, 16]: 0
- Plant response rating, Surinam Grass [7, 17]: 0
- Foxtail, Giant plant response rating [8, 14]: 0
- Plant response rating, Foxtail, Giant [8, 15]: 0
- Plant response rating, Foxtail, Giant [8, 16]: 0
- Plant response rating, Foxtail, Giant [8, 17]: 0
- Wheat plant response rating [9, 14]: 0
- Plant response rating, Wheat [9, 15]: 0
- Plant response rating, Wheat [9, 16]: 0
- Plant response rating, Wheat [9, 17]: 0
- Corn plant response rating [10, 14]: 0
- Plant response rating, Corn [10, 15]: 0
- Plant response rating, Corn [10, 16]: 0
- Plant response rating, Corn [10, 17]: 0
- Cocklebur plant response rating [11, 14]: 0
- Plant response rating, Cocklebur [11, 15]: 20
- Plant response rating, Cocklebur [11, 16]: 0
- Plant response rating, Cocklebur [11, 17]: 30
- Oat, Wild plant response rating [12]: 0
- Plant response rating, Oat, Wild [12]: 20
- Blackgrass plant response rating [13]: 0
- Plant response rating, Blackgrass [13]: 20
